One assay has as its target T1, human M1 (Homo sapiens, UniProt P11229).
T1 construct: expressed in transfected cells; host or cells: CHO cells
T1 sequence (P11229 1-460): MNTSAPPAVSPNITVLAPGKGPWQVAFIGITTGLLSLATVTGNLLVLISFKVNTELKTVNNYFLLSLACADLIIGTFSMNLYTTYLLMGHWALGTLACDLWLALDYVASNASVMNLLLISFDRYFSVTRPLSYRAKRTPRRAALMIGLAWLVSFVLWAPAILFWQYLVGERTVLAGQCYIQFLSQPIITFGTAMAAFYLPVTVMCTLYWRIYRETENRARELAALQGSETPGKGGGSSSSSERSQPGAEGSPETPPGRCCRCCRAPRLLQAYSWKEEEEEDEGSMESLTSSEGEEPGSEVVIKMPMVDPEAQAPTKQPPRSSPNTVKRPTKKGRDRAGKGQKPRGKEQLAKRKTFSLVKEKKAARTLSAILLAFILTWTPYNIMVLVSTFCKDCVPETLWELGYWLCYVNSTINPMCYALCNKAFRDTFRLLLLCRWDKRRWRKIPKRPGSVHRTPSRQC
Put plainly: M1 PAM assay (FLIPR intracellular calcium), human M1. The assay is classed as cell-based. The procedure: The assay study the effect of several concentrations of test compounds on basal or acetylcholine-stimulated Ca^2+ levels using FLIPR.
CHO human M1 are plated the day before the experiments at 2×10^5 cells/ml in PDL BioCoat 96 well black/clear plate (Becton 35 4640). The cells are grown at 37° C. and 5% CO2 in the following medium: F12 Nut Mix (Gibco 21765), 10% FCS heat inactivated (GIBCO 16000-044), 1% Pen Strep (Gibco,15140) and 200 μg/ml Geneticin (Gibco 11811). On the day of the experiment, the medium was removed and replaced by […] of dye loading buffer containing Hanks Balanced Salt solution (HBSS, 14065-049, Gibco) with 20 mM HEPES (Gibco 15630-056), 2 mM Probenicid (Sigma P8761), […] ester (Molecular Probes F-14202), 10% Pluronic acid Molecular Probes P-3000) pH=7.4 and incubated at 37° C. After 60 minutes extracellular dye was removed and the cells were washed five times with FLIPR buffer containing HBSS (Gibco 14065-049) with 20 mM HEPES (Gibco, 15630-056), 2 mM Probenicid (Sigma P8761) pre-warmed at 37° C. using and Ebml cell washer leaving […] of FLIPR buffer in each well. The cell plate and the diluted compounds (1% DMSO final concentration) are placed on the platform of the FLIPR and the door closed. A signal test to check background fluorescence and basal fluorescence signal is performed. Laser intensity is adjusted if necessary. Two minutes preincubation with the diluted test compounds is provide to determine any agonist activity on the M1 receptor by comparison to 30 nM Acetylcholine control. In order to determine any modulator activity the diluted compounds were added to cells and after two minutes preincubation, the EC20 of acetylcholine is added followed by another two minutes preincubation before the measurement of intracellular Ca^2+ with a FLIPR (Molecular Devices).

The next assay deals with T2, ratM1 (Rattus norvegicus, UniProt P08482).
T2 construct: expressed in transfected cells; host or cells: CHO cells (stated generally for the assay, not specifically for rat M1)
T2 sequence (P08482 1-460): T1 sequence (P11229 1-460) with A5V, T254S, P309S, R320K, A337G, I413V
Put plainly: M1 PAM assay (FLIPR intracellular calcium), rat M1. The assay is classed as cell-based. Background: Calcium flux is commonly read through the fluorescence of an indicator in the cells.

Where [1] appears, read: CHO human M1 cells, FLIPR Ca2+, with EC20 of acetylcholine, first value of the cell, read-out: hM1 EC50.
The mark [2] stands for this setting: rat M1, FLIPR Ca2+, second value of the cell, read-out: ratM1 EC50.

Substitutions are numbered along the chain they refer to. Where two headings read alike, the source gives them in different places.

For `Cc1cn(-c2ccc(Cn3cc(C(=O)N[C@H]4CCCC[C@@H]4O)c4c(F)cccc43)cc2)cn1` [Example 36, 4-fluoro-N-((1S,2S)-2-hydroxycyclohexyl)-1-(4-(4-methyl-1H-imidazol-1-yl)benzyl)-1H-indole-3-carboxamide], the 50% effective concentration (EC50) on human M1 (setting [1]) came out at 15.5 nM; on ratM1 (setting [2]) it was 25.9 nM.
Regarding `Cn1cnc2cc(Cn3cc(C(=O)N[C@H]4CCCC[C@@H]4O)c4c(F)cccc43)ccc21` [Example 56, 4-fluoro-N-((1S,2S)-2-hydroxycyclohexyl)-1-((1-methyl-1H-benzo[d]yridine-5-yl)methyl)-1H-indole-3-carboxamide], the figures for the EC50 on human M1 and on ratM1 were 136 nM and 285 nM, respectively.
As to `Cc1ccc(F)c2c(C(=O)NC3CCOCC3)cn(Cc3ccc(-c4cnn(C)c4)cc3F)c12` [Example 133, 4-fluoro-1-(2-fluoro-4-(1-methyl-1H-pyrazol-4-yl)benzyl)-7-methyl-N-(tetrahydro-2H-pyran-4-yl)-1H-indole-3-carboxamide], the half-maximal effective concentration (EC50) on human M1 (setting [1]) came out at 48 nM; on ratM1 (setting [2]), 84 nM.
For `NC(=O)Cc1ccc(Cn2cc(C(=O)N[C@H]3CCCC[C@@H]3O)c3c(F)cccc32)cc1` [Example 80, 1-(4-(2-amino-2-oxoethyl)benzyl)-4-fluoro-N-((1S,2S)-2-hydroxycyclohexyl)-1H-indole-3-carboxamide], in that order: 110 nM and 263 nM.
Consider `O=C(N[C@H]1CCCC[C@@H]1O)c1cn(Cc2ccn3ccnc3c2)c2cccc(F)c12` [Example 144, 4-fluoro-N-((1S,2S)-2-hydroxycyclohexyl)-1-(imidazo[1,2-a]pyridin-7-ylmethyl)-1H-indole-3-carboxamide], for which the EC50 on human M1 stood at 70 nM; at ratM1 it was 172 nM.
As for `CNC(=O)c1ccc(Cn2cc(C(=O)NC3CCCC(F)(F)C3)c3c(F)cccc32)cc1` (stereo not drawn) [Example 118, N-(3,3-difluorocyclohexyl)-4-fluoro-1-[[4-(methylcarbamoyl)phenyl]methyl]indole-3-carboxamide], the concentration for a half-maximal effect (EC50) amounted to 9 nM at human M1 (setting [1]) and 29 nM on ratM1 (setting [2]).
For `CNC(=O)c1ccc(Cn2cc(C(=O)NC3CC3)c3c(F)cccc32)cc1` [Example 111, N-cyclopropyl-4-fluoro-1-[[4-(methylcarbamoyl)phenyl]methyl]indol-3-carboxamide], in that order: 127 nM and 408 nM.
The matching figures for `Cn1cc(-c2ccc(Cn3cc(C(=O)N[C@H]4CCOC[C@@H]4O)c4c(F)ccc(C5CC5)c43)c(F)c2)cn1` [Example 107, 7-cyclopropyl-4-fluoro-1-(2-fluoro-4-(1-methyl-1H-pyrazol-4-yl)benzyl)-N-((3R,4S)-3-hydroxytetrahydro-2H-pyran-4-yl)-1H-indole-3-carboxamide]: 482 nM and 767 nM.
Turning to `Cn1cc(-c2ccc(Cn3cc(C(=O)NC4CCCOC4)c4c(F)cccc43)cc2)cn1` (stereo not drawn) [Example 12, 4-fluoro-1-(4-(1-methyl-1H-pyrazol-4-yl)benzyl)-N-(tetrahydro-2H-pyran-3-yl)-1H-indole-3-carboxamide], the concentration giving a half-maximal response (EC50) was determined as 129 nM on human M1 (setting [1]) and 398 nM on ratM1 (setting [2]).
Consider `Cn1cc(-c2ccc(Cn3nc(C(=O)N[C@@H]4CCCC[C@H]4O)c4c(F)cccc43)c(F)c2)cn1` [Example 4, 4-fluoro-1-(2-fluoro-4-(1-methyl-1H-pyrazol-4-yl)benzyl)-N-((1R,2R)-2-hydroxycyclohexyl)-1H-indazole-3-carboxamide], for which the 50% effective concentration (EC50) at human M1 (setting [1]) worked out at 295 nM; on ratM1 (setting [2]) it was 1290 nM.
In the case of `Cn1cc(-c2ccc(Cn3cc(C(=O)NC4CC(F)(F)C4)c4c(F)cccc43)cc2)cn1` [Example 9, N-(3,3-difluorocyclobutyl)-4-fluoro-1-(4-(1-methyl-1H-pyrazol-4-yl)benzyl)-1H-indole-3-carboxamide], the results for the EC50 at human M1 (setting [1]) and on ratM1 (setting [2]) were 365 nM and 411 nM, respectively.
For `Cn1cc(-c2ccc(Cn3cc(C(=O)N[C@H]4CCOC[C@@H]4O)c4c(F)cccc43)c(F)c2)cn1` (single isomer, unassigned) [Example 71, 4-Fluoro-1-(2-fluoro-4-(1-methyl-1H-pyrazol-4-yl)benzyl)-N-((3R,4S) or (3S,4R)-3-hydroxytetrahydro-2H-pyran-4-yl)-1H-indole-3-carboxamide], in that order: 5.92 nM and 12 nM.
For `Cc1ccc(F)c2c(C(=O)N[C@H]3CCCC[C@@H]3O)cn(Cc3ccc(-c4cnn(C)c4)cc3)c12` [Example 46, 4-fluoro-N-((1S,2S)-2-hydroxycyclohexyl)-7-methyl-1-(4-(1-methyl-1H-pyrazol-4-yl)benzyl)-1H-indole-3-carboxamide], the EC50 on human M1 (setting [1]) stood at 10.3 nM; at ratM1 (setting [2]), 22.2 nM.
Turning to `Cn1cc(-c2ccc(Cn3cc(C(=O)NCC4COC4)c4c(F)cccc43)cc2)cn1` [Example 13, 4-fluoro-1-(4-(1-methyl-1H-pyrazol-4-yl)benzyl)-N-(oxetan-3-ylmethyl)-1H-indole-3-carboxamide], the EC50 on human M1 (setting [1]) came out at 192 nM; on ratM1 (setting [2]), 250 nM.
On to `COc1ccc(Cn2cc(C(=O)N[C@H]3CCCC[C@@H]3O)c3c(F)cccc32)cc1F` [Example 33, 4-fluoro-1-(3-fluoro-4-methoxybenzyl)-N-((1S,2S)-2-hydroxycyclohexyl)-1H-indole-3-carboxamide], for which the EC50 on human M1 amounted to 104 nM; on ratM1, 222 nM.
For `O=C(N[C@H]1CCCC[C@@H]1O)c1cn(Cc2ccc(OC(F)F)cc2)c2cccc(F)c12` [Example 29, 1-(4-(difluoromethoxy)benzyl)-4-fluoro-N-((1S,2S)-2-hydroxycyclohexyl)-1H-indole-3-carboxamide], the EC50 at human M1 came out at 226 nM.
Regarding `O=C(N[C@H]1CCCC[C@@H]1O)c1cn(Cc2ccc(OC(F)(F)F)cc2)c2cccc(F)c12` [Example 34, 4-fluoro-N-((1S,2S)-2-hydroxycyclohexyl)-1-(4-(trifluoromethoxy)benzyl)-1H-indole-3-carboxamide], the EC50 at human M1 was found to be 342 nM.
With `COc1ccc(Cn2cc(C(=O)N[C@H]3CCCC[C@@H]3O)c3c(F)cccc32)c(F)c1` [Example 28, 4-fluoro-1-(2-fluoro-4-methoxybenzyl)-N-((1S,2S)-2-hydroxycyclohexyl)-1H-indole-3-carboxamide], the half-maximal effective concentration (EC50) on human M1 amounted to 272 nM.
`CNC(=O)c1ccc(Cn2cc(C(=O)NC3CCSCC3)c3c(F)cccc32)cc1F` [Example 167, 4-fluoro-1-(3-fluoro-4-(methylcarbamoyl)benzyl)-N-(tetrahydro-2H-thiopyran-4-yl)-1H-indole-3-carboxamide]: the 50% effective concentration (EC50) at human M1 (setting [1]) is 47 nM.
In the case of `CNC(=O)c1ccc(Cn2cc(C(=O)NC3CCCCC3(F)F)c3c(F)cccc32)cc1F` (stereo not drawn) [Example 165, N-(2,2-difluorocyclohexyl)-4-fluoro-1-(3-fluoro-4-(methy7lcarbamoyl)benzyl)-1H-indole-3-carboxamide], the concentration for a half-maximal effect (EC50) at human M1 (setting [1]) was found to be 43 nM.
`NC(=O)c1cccc(Cn2cc(C(=O)N[C@H]3CCCC[C@@H]3O)c3c(F)cccc32)c1` [Example 81, 1-(3-carbamoylbenzyl)-4-fluoro-N-((1S,2S)-2-hydroxycyclohexyl)-1H-indole-3-carboxamide]: the 50% effective concentration (EC50) at human M1 (setting [1]) amounted to 351 nM.

In general, EC50 refers to the midpoint of the concentration-response curve.

These data come from patent publication US9708259B2 (Hoffmann-La Roche Inc., priority 2013, dated 2017).
